Results on one molecule are retold here after PMC7997578, “Design, Synthesis, Dynamic Docking, Biochemical Characterization, and in Vivo Pharmacokinetics Studies of Novel Topoisomerase II Poisons with Promising Antiproliferative Activity” (Journal of Medicinal Chemistry, 2020).

Each structure is given as a SMILES string. Some results are limits rather than exact numbers.

Data set [1] in a line: aqueous kinetic solubility. The data set is classed as physicochemical. To be noted: PBS, pH 7.4, PBS pH 7.4, target 250 µM, 2.5% DMSO, 25°C. The procedure:
1. In vitro m etabolic stabili ty
In vitro microsomial stability. 10mM DMSO stock solution of test compound was pre-incubated at 37 °C for 15min with mouse liver microsomes added 0.1M Tris-HCl buffer (pH 7.4). The final concentration was 4.6µM. After pre -incubation, the co-factors (NADPH, G6P, G6PDH and MgCl2 pre-dissolved in 0.1M Tris-HCl) were added to the incubation mixture and the incubation was continued at 37 °C for 1h. At each time point (0, 5, 15, 30, 60min), 30µL of incubation mixture was diluted with 200µL cold CH 3CN spiked with 200n M of internal standard, followed by centrifugation at 3500g for 15min. The supernatant was further diluted with H2O (1:1) for analysis. The concentration of test compound was quantified by LC/MS-MS on a Waters ACQUITY UPLC/M S TQD system consisting of a TQD (Triple Quadrupole Detector) Mass Spectrometer equipped with an Electrospray Ionization interface. The analyses were run on an ACQUITY UPLC BEH C18 (50x2.1mmID, particle size 1.7µm) with a VanGuard BEH C18 pre -column (5x2.1mmID, particle size 1.7µm) at 40°C, using 0.1% HCOOH in H 2O (A) and 0.1% HCOOH in CH 3CN (B) as mobile phase. Electrospray ionization (ESI) was app lied in positive mode . The percentage of test compound remaining at each time point relative to t=0 was calculated. The half -lives (t½) were determined by an one-phase decay equation using a non -linear regression of compound concentration versus time.
In vitro Plasma Stability. 10mM DMSO stock solution of test compound was diluted 50 -fold with DMSO-H2O (1:1) and incubated at 37 °C for 2 h with mouse plasma added 5% DMSO (pre-heated at 37 °C for 10 min). The final concentration was 2µM. At each time point (0, 5, 15, 30, 60, 120min), 50 µL of incubation mixture was diluted with 200µL cold CH3CN spiked with 200nM of internal standard, followed by centrifugation at 3500g for 20min. The supernatant was further diluted with H2O (1:1) for analysis. The concentration of test compound was quantified by LC/MS-MS on a Waters ACQUITY UPLC/MS TQD system consisting of a TQD (Triple Quadrupole Detector) Mass Spectrometer equipped with an Electrospray Ionization interface. The analyses were run on an ACQUITY UPLC BEH C18 (50x2.1mmID, particle size 1.7µm) with a VanGuard BEH C18 pre - column (5x2.1mmID, particle size 1.7µm) at 40°C, using 0.1% HCOOH in H2O (A) and 0.1% HCOOH in CH3CN (B) as mobile phase. Electrospray ionization (ESI) was applied in positive mode.
The response factors, calculated on the basis of the internal standard peak area, were plotted over time. When possible, response vs. time profiles were fitted with Prism (GraphPad Software, Inc., USA) to estimate compounds half-life in plasma.
2. Aqueous ki netic solu bili ty
The aqueous kinetic solubility was determined from a 10mM DMSO stock solution of test compound in Phosphate Buffered Saline (PBS) at pH 7.4. The study was performed by incubation of an aliquot of 10mM DMSO stock solution in PBS (pH 7.4) at a target concentration of 250µM resulting in a final concentration of 2.5% DMSO. The incubation was carried out under shaking at 25°C for 24h followed by centrifugation at 21.100g for 30min. The supernatant was analyzed by UPLC/MS for the quantification of dissolved compound by UV at a specific wavelength (215nm).
The analyses were performed on a Waters ACQUITY UPLC/MS SQD system consisting of a SQD (Single Quadrupole Detector) Mass Spectrometer equipped with Electrospray Ionization interface.
The analyses were run on an ACQUITY UPLC BEH C18 column (50x2.1mmID, particle size 1.7µm) with a VanGuard BEH C18 pre-column (5x2.1mmID, particle size 1.7µm), using 10mM NH4OAc in H2O at pH 5 adjusted with AcOH (A) and 10mM NH4OAc in MeCN-H2O (95:5) at pH 5 (B) as […]

The target in data set [2] is T1, topoII/DNA cleavage complex (Homo sapiens, UniProt P11388).
T1 construct: purchased Inspiralis
Briefly: topoisomerase II cleavage complex assay. The data set is classed as biochemical. The procedure: Figure 2 Poison activity of the hybrid compounds. Agarose gel electrophoresis of plasmid DNA incubated in the absence (no enzyme) or presence of 1 U of topoII containing either 1% DMSO as control vehicle (no enzyme and topoII lanes) or 200 μM compound. Labels are shown above each lane. Numbers at the bottom correspond to the normalized intensity of the linear form (FIII). Plasmid forms are indicated by the arrow-points on the right: supercoiled (FI), nicked (FII), and linear (FIII).
Poison activity of the compounds was evaluated using a cleavage complex assay (Inspiralis) as described previously.[60] Compounds were tested at a fixed concentration of 200 μM in the presence of 1 U of topoisomerase II and 500 ng of […] plasmid at 37 °C for 6 min. Final DMSO concentration in the assay was 1%. Reaction products were subjected to electrophoresis in a 1% agarose gel, stained with SYBR Safe DNA stain, and DNA bands were visualized and quantified as described above.

T1 sequence (P11388 whole entry, one chain of several): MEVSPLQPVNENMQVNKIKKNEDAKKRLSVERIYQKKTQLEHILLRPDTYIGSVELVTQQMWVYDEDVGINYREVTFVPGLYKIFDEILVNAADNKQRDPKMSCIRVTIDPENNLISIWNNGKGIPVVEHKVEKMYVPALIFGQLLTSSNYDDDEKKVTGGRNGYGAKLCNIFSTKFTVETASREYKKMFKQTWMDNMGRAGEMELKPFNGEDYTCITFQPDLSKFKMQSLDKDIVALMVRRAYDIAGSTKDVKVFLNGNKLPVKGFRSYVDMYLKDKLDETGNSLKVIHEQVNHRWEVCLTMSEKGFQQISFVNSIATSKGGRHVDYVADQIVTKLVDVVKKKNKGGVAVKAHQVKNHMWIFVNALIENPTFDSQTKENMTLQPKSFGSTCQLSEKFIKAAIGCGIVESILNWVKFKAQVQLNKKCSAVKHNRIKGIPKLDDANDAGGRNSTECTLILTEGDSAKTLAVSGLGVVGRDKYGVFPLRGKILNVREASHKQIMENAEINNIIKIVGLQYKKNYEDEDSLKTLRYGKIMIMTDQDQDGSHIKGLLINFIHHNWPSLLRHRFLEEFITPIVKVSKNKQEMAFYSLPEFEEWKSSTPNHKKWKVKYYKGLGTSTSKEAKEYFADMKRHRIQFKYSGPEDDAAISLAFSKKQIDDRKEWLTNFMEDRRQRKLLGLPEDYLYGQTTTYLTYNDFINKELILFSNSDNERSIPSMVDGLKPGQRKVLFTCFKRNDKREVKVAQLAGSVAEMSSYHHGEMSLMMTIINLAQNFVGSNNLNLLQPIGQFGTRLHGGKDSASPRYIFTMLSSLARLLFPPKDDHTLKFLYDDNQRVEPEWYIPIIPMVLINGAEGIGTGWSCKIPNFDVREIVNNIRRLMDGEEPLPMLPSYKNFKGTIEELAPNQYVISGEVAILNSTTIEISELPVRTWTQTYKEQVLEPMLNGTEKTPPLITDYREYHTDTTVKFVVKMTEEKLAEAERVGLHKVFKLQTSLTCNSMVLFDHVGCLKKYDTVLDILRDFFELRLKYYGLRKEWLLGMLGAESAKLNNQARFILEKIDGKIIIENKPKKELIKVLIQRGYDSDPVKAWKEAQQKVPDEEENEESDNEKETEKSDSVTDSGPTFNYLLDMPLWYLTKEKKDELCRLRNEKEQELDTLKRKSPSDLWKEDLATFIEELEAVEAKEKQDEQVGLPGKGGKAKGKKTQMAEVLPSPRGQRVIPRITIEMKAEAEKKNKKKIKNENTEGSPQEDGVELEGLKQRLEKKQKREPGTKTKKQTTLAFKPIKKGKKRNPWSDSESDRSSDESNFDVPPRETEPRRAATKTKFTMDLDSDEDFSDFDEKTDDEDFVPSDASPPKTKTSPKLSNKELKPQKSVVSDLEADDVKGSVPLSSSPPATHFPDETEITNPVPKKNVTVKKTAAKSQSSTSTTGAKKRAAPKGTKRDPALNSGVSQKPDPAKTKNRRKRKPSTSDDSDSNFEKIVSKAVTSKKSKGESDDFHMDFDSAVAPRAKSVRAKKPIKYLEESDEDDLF

Usually solubility (kinetic) stands for solubility judged after dilution from a stock solution rather than from solid. `O=C(Nc1cccc(OC(F)(F)F)c1)c1c(O)n(-c2ccccc2)c(=S)n(-c2ccccc2)c1=O` [3f, 6-Hydroxy-4-oxo-1,3-diphenyl-2-thioxo-N-(3-(trifluoromethoxy)phenyl)-1,2,3,4-tetrahydropyrimidine-5-carboxamide] came in with a solubility (kinetic) at 24 h in data set [1] greater than 200 µM. The “mode of action in cleavage complex formation assay” value in data set [2] (200 μM compound, 1 U topoII, plasmid DNA) is “confirmed to be poisons”. Besides, the “poison efficacy, fold better than ARN16267” value in data set [2] (200 μM concentration, linear form (FIII) intensity) is “about 1.5 fold”.
